PubChem BioAssay (NCI)
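Assay format: 96-well plates, 48-hour exposure. Here, GI50 denotes the concentration required for 50% inhibition of growth. Definition used: TGI = concentration required for complete inhibition of growth.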

Columns and labels:
Experiment in all cases: NCI anticancer screen, dose series, 48 h; in the data active means GI50 below about 0.43 µM; inactive means the rest
[1] = tested on: UO-31 renal
[2] = tested on: OVCAR-3 ovarian
[3] = tested on: SNB-75 CNS
[4] = tested on: SN12C renal
[5] = tested on: HCT-116 colon
[6] = tested on: U251 CNS
[7] = tested on: HL-60(TB) leukemia
[8] = tested on: IGROV1 ovarian
[9] = tested on: SF-539 CNS
[10] = tested on: CCRF-CEM leukemia
[11] = tested on: SNB-19 CNS
[12] = tested on: SK-MEL-2 melanoma
[13] = tested on: K-562 leukemia
[14] = tested on: NCI-H23 lung
[15] = tested on: OVCAR-5 ovarian
[16] = tested on: RPMI-8226 leukemia
[17] = tested on: COLO 205 colon
[18] = tested on: HCT-15 colon
[19] = tested on: CAKI-1 renal
[20] = tested on: MDA-MB-435
[21] = tested on: M14 melanoma
[22] = tested on: HT29 colon
[23] = tested on: EKVX NSCLC
[24] = tested on: BT-549 breast
[25] = tested on: DU-145 prostate
[26] = tested on: OVCAR-8 ovarian
[27] = tested on: HOP-62 NSCLC
[28] = tested on: NCI-H522 lung
[29] = tested on: HS 578T breast
[30] = tested on: T-47D breast
[31] = tested on: TK-10 renal
[32] = tested on: UACC-257 melanoma
[33] = tested on: SK-MEL-5 melanoma
[34] = tested on: HCC-2998 colon
[35] = tested on: SF-295 CNS
[36] = tested on: 786-0 renal
[37] = tested on: MDA-MB-231 breast
[38] = tested on: KM12 colon
[39] = tested on: RXF 393 renal
[40] = tested on: A549 NSCLC
[41] = tested on: HOP-92 NSCLC
[42] = tested on: OVCAR-4 ovarian
[43] = tested on: SK-MEL-28 melanoma
[44] = tested on: NCI-H226 lung
[45] = tested on: MOLT-4 leukemia
[46] = tested on: NCI-H460 lung
[47] = tested on: SR leukemia
[48] = tested on: A498 renal
[49] = tested on: PC-3 prostate
[50] = tested on: UACC-62 melanoma
[51] = tested on: MCF7 breast
[52] = tested on: SK-OV-3 ovarian
[53] = tested on: SW-620 colon
[54] = tested on: SF-268 CNS
[55] = tested on: NCI/ADR-RES ovarian
[56] = tested on: ACHN renal
[57] = tested on: LOX IMVI melanoma
[58] = tested on: MALME-3M melanoma

COc1ccc(-c2[nH]c(=O)n(C3OC(CO)C(O)C(O)C3O)c(=O)c2C#N)cc1 (stereo unspecified)
> 100 µM: TGI [1] | TGI [2] | TGI [3] | TGI [4] | TGI [5] | TGI [6] | TGI [7] | TGI [8] | TGI [9] | TGI [10] | TGI [11] | TGI [12] | TGI [13] | TGI [14] | TGI [15] | TGI [16] | TGI [17] | TGI [18] | TGI [19] | TGI [20] | TGI [21] | TGI [22] | TGI [23] | TGI [24] | TGI [25] | TGI [26] | TGI [27] | TGI [28] | TGI [29] | TGI [30] | TGI [31] | TGI [32] | TGI [33] | TGI [34] | TGI [35] | TGI [36] | TGI [37] | TGI [38] | TGI [39] | TGI [40] | TGI [41] | TGI [42] | TGI [43] | TGI [44] | TGI [45] | TGI [46] | TGI [47] | TGI [48] | TGI [49] | TGI [50] | TGI [51] | TGI [52] | TGI [53] | TGI [54] | TGI [55] | TGI [56]

CC(C)(O)c1coc(S(=O)(=O)/N=C(\O)Nc2c3c(cc4c2CCC4)CCC3)c1
> 100 µM: TGI [1] | TGI [2] | TGI [3] | TGI [4] | TGI [5] | TGI [6] | TGI [7] | TGI [8] | TGI [9] | TGI [11] | TGI [12] | TGI [13] | TGI [14] | TGI [15] | TGI [16] | TGI [17] | TGI [18] | TGI [19] | TGI [20] | TGI [21] | TGI [22] | TGI [23] | TGI [24] | TGI [25] | TGI [26] | TGI [57] | TGI [27] | TGI [28] | TGI [29] | TGI [30] | TGI [31] | TGI [32] | TGI [33] | TGI [58] | TGI [34] | TGI [35] | TGI [36] | TGI [37] | TGI [38] | TGI [39] | TGI [40] | TGI [41] | TGI [42] | TGI [43] | TGI [44] | TGI [45] | TGI [46] | TGI [47] | TGI [48] | TGI [49] | TGI [50] | TGI [51] | TGI [52] | TGI [53] | TGI [54] | TGI [56]
inactive: GI50 [1] > 100 µM | GI50 [2] > 100 µM | GI50 [3] > 100 µM | GI50 [4] > 100 µM | GI50 [5] > 100 µM | GI50 [6] > 100 µM | GI50 [7] > 100 µM | GI50 [8] > 100 µM | GI50 [9] > 100 µM | GI50 [11] > 100 µM | GI50 [12] > 100 µM | GI50 [13] > 100 µM | GI50 [14] > 100 µM | GI50 [15] > 100 µM | GI50 [16] > 100 µM | GI50 [17] > 100 µM | GI50 [18] > 100 µM | GI50 [19] > 100 µM | GI50 [20] > 100 µM | GI50 [21] > 100 µM | GI50 [22] > 100 µM | GI50 [23] > 100 µM | GI50 [24] > 100 µM | GI50 [25] > 100 µM | GI50 [26] > 100 µM | GI50 [57] > 100 µM | GI50 [27] > 100 µM | GI50 [28] > 100 µM | GI50 [29] > 100 µM | GI50 [30] > 100 µM | GI50 [31] > 100 µM | GI50 [32] > 100 µM | GI50 [33] > 100 µM | GI50 [58] > 100 µM | GI50 [34] > 100 µM | GI50 [35] > 100 µM | GI50 [36] > 100 µM | GI50 [37] > 100 µM | GI50 [38] > 100 µM | GI50 [39] > 100 µM | GI50 [40] > 100 µM | GI50 [41] 91.9 µM | GI50 [42] > 100 µM | GI50 [43] > 100 µM | GI50 [44] > 100 µM | GI50 [45] > 100 µM | GI50 [46] > 100 µM | GI50 [47] > 100 µM | GI50 [48] > 100 µM | GI50 [49] > 100 µM | GI50 [50] > 100 µM | GI50 [51] > 100 µM | GI50 [52] > 100 µM | GI50 [53] > 100 µM | GI50 [54] > 100 µM | GI50 [56] > 100 µM

CC(=O)Nc1ccc(-c2csc(Nc3ccc(-c4csc(-c5ccccc5)n4)cc3)n2)cc1
41.2 µM: TGI [33]
inactive: GI50 [1] > 50 µM | GI50 [2] > 50 µM | GI50 [4] 5.64 µM | GI50 [5] > 50 µM | GI50 [6] 7.16 µM | GI50 [7] 37.4 µM | GI50 [8] 10.9 µM | GI50 [10] > 50 µM | GI50 [11] 16.5 µM | GI50 [13] 5.52 µM | GI50 [14] 3.73 µM | GI50 [15] 12.6 µM | GI50 [16] > 50 µM | GI50 [17] > 50 µM | GI50 [18] 17.4 µM | GI50 [19] 20.9 µM | GI50 [20] 19.1 µM | GI50 [21] > 50 µM | GI50 [23] 12.9 µM | GI50 [24] 11.4 µM | GI50 [25] 36.1 µM | GI50 [26] 10.7 µM | GI50 [57] 31 µM | GI50 [27] > 50 µM | GI50 [28] 16.3 µM | GI50 [29] 40.9 µM | GI50 [30] 26.5 µM | GI50 [31] 16.4 µM | GI50 [32] > 50 µM | GI50 [33] 11.1 µM | GI50 [35] 36.3 µM | GI50 [36] 32.2 µM | GI50 [37] 6.94 µM | GI50 [38] 25.5 µM | GI50 [39] 13.3 µM | GI50 [40] 12.6 µM | GI50 [41] > 50 µM | GI50 [43] 7.14 µM | GI50 [46] 7.94 µM | GI50 [47] 9.64 µM | GI50 [48] 12.5 µM | GI50 [49] 20.6 µM | GI50 [50] 5.98 µM | GI50 [51] 16.3 µM | GI50 [52] 9.08 µM | GI50 [53] > 50 µM | GI50 [54] 19.9 µM | GI50 [55] 11.1 µM | GI50 [56] 7.53 µM
> 50 µM: TGI [1] | TGI [2] | TGI [5] | TGI [7] | TGI [10] | TGI [11] | TGI [13] | TGI [16] | TGI [17] | TGI [18] | TGI [19] | TGI [20] | TGI [21] | TGI [23] | TGI [24] | TGI [25] | TGI [26] | TGI [57] | TGI [27] | TGI [29] | TGI [30] | TGI [31] | TGI [32] | TGI [35] | TGI [36] | TGI [38] | TGI [39] | TGI [40] | TGI [41] | TGI [46] | TGI [49] | TGI [50] | TGI [51] | TGI [52] | TGI [53] | TGI [54]
25.6 µM: TGI [48]
37.2 µM: TGI [55]
27.9 µM: TGI [56]
42.9 µM: TGI [43]
40.2 µM: TGI [8]
20.1 µM: TGI [14]
45.2 µM: TGI [47]
21.3 µM: TGI [6]
23.9 µM: TGI [4]
41.5 µM: TGI [28]
42.6 µM: TGI [15]
27.8 µM: TGI [37]
